Here are results for nine compounds from patent US12065436B2, “Cardiac sarcomere inhibitors” (Cytokinetics, Inc., priority 2018, dated 2024).

Like-named read-outs stand apart in the source and are kept apart here.

Usually IC50 stands for the concentration that gives 50% inhibition. As a reminder, the IC10 is the concentration needed for an effect of 10%.

Assay [1] concerns the target bovine cardiac myofibrils (full-length cardiac myosin ATPase in the native sarcomere) (Bos taurus (Bovine), UniProt Q9BE39). As to the kind of experiment: Skinned bovine cardiac myofibril ATPase assay (PK/LDH-coupled). In kind it is biochemical. The note with it: Ca2+ activating to 75% of maximal rate; for CDMF75 IC15: concentration giving 15% inhibition; for IC50: read-out: CDMF75 IC50. The method, boiled down:
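Triton-skinned bovine left-ventricle myofibrils (1 mg/mL) in PM 12 buffer (12 mM PIPES, 2 mM MgCl2, pH 6.8) with 50 μM ATP, 0.6 mM EGTA and CaCl2 set for 50% or 75% activation. Steady-state ATPase inhibition followed by PK/LDH-coupled NADH oxidation at 340 nm.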

Assay [2] deals with adult cardiac ventricular rat myocytes. The assay is described as follows: Adult ventricular myocyte contractility (fractional shortening). In kind it is cell-based. The settings on record: 5 min, 5 min perfusion, read-out: % FS (% reduction from baseline) ± SEM; for inhibition at 10 µM: 10 μM compound; for inhibition at 5 µM: 5 μM compound. The method, then:
Adult male Sprague-Dawley rats were anesthetized and the hearts were quickly excised, rinsed and the ascending aorta was cannulated. Continuous retrograde perfusion was initiated on the hearts at a perfusion pressure of 60 cm H2O. Hearts were first perfused with a nominally Ca^2+-free modified Krebs solution of the following composition: 113 mM NaCl, 4.7 mM KCl, 0.6 mM KH2PO4, 0.6 mM Na2HPO4, 1.2 mM MgSO4, 12 mM NaHCO3, 10 mM KHCO3, 30 mM taurine, 5.5 mM glucose and 10 mM Hepes (all Sigma). This medium is not recirculated and is continually aerated with a 95% O2/5% CO2 mixture. After approximately 3 minutes the heart was perfused with a modified Krebs buffer supplemented with collagenase (Worthington) and 12.5 μM final calcium concentration. The heart was removed from the cannulae after the heart appeared blanched and soft in appearance. The atria and vessels were removed and the ventricles were gently dissected into smaller pieces with forceps. The tissue was homogenized by repeated pipette trituration and the collagenase reaction was stopped by 10% bovine calf serum (BCS), sedimentation and resuspension in perfusion buffer containing 5% BCS and 12.5 uM CaCl2). Myocytes were made calcium tolerant by stepwise addition of a CaCl2) solution to a final concentration of 1.2 mM. Cells were then washed and resuspended in Tyrode's buffer (137 mM NaCl, 3.7 mM KCl, 0.5 mM MgCl, 11 mM glucose, 4 mM Hepes, and 1.2 mM CaCl2), pH 7.4). Cells were kept for 60 min at 37° C. prior to initiating experiments and used within 5 hrs of isolation. […] Additionally, only cells whose basal contractility was between 3 and 8% were used in subsequent experiments with compounds.
Aliquots of myocytes in Tyrode's buffer were placed in perfusion chambers (series 20 RC-27NE; Warner Instruments) complete with heating platforms. Myocytes were allowed to attach, the chambers were heated to 37° C., and the cells were perfused with 37° C. Tyrode's buffer. Myocytes were field stimulated at 1 Hz in with platinum electrodes (20% above threshold). Only cells that had clear striations and were quiescent prior to pacing were used for contractility experiments. To determine basal contractility, myocytes were imaged through a 40× objective. […] Once cell contraction was stable over time, test compounds (0.01-15 μM) were perfused into the chambers on the myocytes for 5 minutes. Contractility of the myocytes and contraction and relaxation velocities were then recorded using edge detection.
Five or more individual myocytes were tested per compound from two or more different myocyte preparations. For each cell, twenty or more contractility transients at basal (defined as 1 min prior to compound infusion) and after compound addition (defined as 5 min after starting compound perfusion), were averaged and compared. These average transients were analyzed using the IonWizard software (IonOptix) to determine changes in diastolic length and fractional shortening. Fractional shortening was calculated as: ((resting length−length at peak contraction) divided by the resting length). The percent change in fractional shortening from baseline was calculated as: ((post-dose fractional shortening/basal fractional shortening)*100). The percent reduction in fractional shortening from baseline was calculated as: (100−percent change in fractional shortening from baseline). Maximum contraction and relaxation velocities (um/sec) was also determined. Results from individual cells are averaged and the SEM calculated.

The subject of assay [3] is rat cardiac contractility (left ventricle fractional shortening). As to the kind of experiment: Echocardiography of acute effect on rat cardiac contractility, continuous IV infusion. The assay is classed as in vivo, Sprague Dawley rats. The note with it: Rattus norvegicus, plasma concentration at which fractional shortening is 50% of pre-dose baseline, estimated, read-out: IC50 (Mean ± S.D.). The method, then:
Assessment of in vivo cardiac function by echocardiography was performed in male Sprague Dawley rats under isoflurane (1-3%) anesthesia. 2-D M-mode images of the left ventricle were acquired in the parasternal long-axis view before, during, and after administration of compounds by continuous IV infusion or oral gavage. In vivo fractional shortening was determined by M-mode image analysis with the following calculation: ((End diastolic diameter−end systolic diameter)/end diastolic diameter×100). For continuous IV infusion experiments, three pre-dose baseline M-mode images were taken at 1 minute intervals prior to infusion of compound. Compounds were formulated in 50% Propylene Glycol (PG): 16% Captisol: 10% dimethylacetamide (DMA) and delivered via a jugular vein catheter at the rate of 1 mL/kg/h. During infusion, M-mode images were taken at 5 minute intervals. The infusion stopped when fractional shortening reached up to a 60% reduction from baseline. Blood samples were taken to determine the plasma concentration of the compounds. Data was reported as an estimated IC50 value, which is the concentration at which fractional shortening is 50% of the pre-dose baseline contractility.

The test system is the same in assay [4]. As to the kind of experiment: Echocardiography of acute effect on rat cardiac contractility, oral gavage. The assay is classed as in vivo, Sprague Dawley rats. The note with it: for inhibition in vivo at 2 mg/kg / IC50 / inhibition in vivo at 10 mg/kg / inhibition in vivo at 6 mg/kg / inhibition in vivo at 4.5 mg/kg: Rattus norvegicus; for inhibition in vivo at 2 mg/kg / inhibition in vivo at 10 mg/kg / inhibition in vivo at 6 mg/kg / inhibition in vivo at 4.5 mg/kg: oral gavage; for IC50 / IC10: oral dosing, estimated; for IC50: plasma concentration at which fractional shortening is 50% of pre-dose baseline; for IC10: plasma concentration at which. The essentials: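 Male Sprague Dawley rats under isoflurane (1-3%) anesthesia had three pre-dose baseline M-mode images of the left ventricle (parasternal long-axis view) taken at 1 minute intervals. Compound in 0.5% HPMC 2910: 0.1% Tween 80 suspension was then given as a single oral gavage dose (5 mL/kg). Fractional shortening was measured at chosen time points over 24 hours, with plasma concentrations sampled concurrently.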

Setting [5] is: 1 h, 1-2 h post dose, read-out: FS (% reduction from baseline) at 1-2 h post dose (Mean ± S.D.).
The mark [6] stands for this setting: 4 h post dose, read-out: FS (% reduction from baseline) at 4 h post dose (Mean ± S.D.).

Sequence of bovine cardiac myofibrils (full-length cardiac myosin ATPase in the native sarcomere) (Q9BE39 whole entry): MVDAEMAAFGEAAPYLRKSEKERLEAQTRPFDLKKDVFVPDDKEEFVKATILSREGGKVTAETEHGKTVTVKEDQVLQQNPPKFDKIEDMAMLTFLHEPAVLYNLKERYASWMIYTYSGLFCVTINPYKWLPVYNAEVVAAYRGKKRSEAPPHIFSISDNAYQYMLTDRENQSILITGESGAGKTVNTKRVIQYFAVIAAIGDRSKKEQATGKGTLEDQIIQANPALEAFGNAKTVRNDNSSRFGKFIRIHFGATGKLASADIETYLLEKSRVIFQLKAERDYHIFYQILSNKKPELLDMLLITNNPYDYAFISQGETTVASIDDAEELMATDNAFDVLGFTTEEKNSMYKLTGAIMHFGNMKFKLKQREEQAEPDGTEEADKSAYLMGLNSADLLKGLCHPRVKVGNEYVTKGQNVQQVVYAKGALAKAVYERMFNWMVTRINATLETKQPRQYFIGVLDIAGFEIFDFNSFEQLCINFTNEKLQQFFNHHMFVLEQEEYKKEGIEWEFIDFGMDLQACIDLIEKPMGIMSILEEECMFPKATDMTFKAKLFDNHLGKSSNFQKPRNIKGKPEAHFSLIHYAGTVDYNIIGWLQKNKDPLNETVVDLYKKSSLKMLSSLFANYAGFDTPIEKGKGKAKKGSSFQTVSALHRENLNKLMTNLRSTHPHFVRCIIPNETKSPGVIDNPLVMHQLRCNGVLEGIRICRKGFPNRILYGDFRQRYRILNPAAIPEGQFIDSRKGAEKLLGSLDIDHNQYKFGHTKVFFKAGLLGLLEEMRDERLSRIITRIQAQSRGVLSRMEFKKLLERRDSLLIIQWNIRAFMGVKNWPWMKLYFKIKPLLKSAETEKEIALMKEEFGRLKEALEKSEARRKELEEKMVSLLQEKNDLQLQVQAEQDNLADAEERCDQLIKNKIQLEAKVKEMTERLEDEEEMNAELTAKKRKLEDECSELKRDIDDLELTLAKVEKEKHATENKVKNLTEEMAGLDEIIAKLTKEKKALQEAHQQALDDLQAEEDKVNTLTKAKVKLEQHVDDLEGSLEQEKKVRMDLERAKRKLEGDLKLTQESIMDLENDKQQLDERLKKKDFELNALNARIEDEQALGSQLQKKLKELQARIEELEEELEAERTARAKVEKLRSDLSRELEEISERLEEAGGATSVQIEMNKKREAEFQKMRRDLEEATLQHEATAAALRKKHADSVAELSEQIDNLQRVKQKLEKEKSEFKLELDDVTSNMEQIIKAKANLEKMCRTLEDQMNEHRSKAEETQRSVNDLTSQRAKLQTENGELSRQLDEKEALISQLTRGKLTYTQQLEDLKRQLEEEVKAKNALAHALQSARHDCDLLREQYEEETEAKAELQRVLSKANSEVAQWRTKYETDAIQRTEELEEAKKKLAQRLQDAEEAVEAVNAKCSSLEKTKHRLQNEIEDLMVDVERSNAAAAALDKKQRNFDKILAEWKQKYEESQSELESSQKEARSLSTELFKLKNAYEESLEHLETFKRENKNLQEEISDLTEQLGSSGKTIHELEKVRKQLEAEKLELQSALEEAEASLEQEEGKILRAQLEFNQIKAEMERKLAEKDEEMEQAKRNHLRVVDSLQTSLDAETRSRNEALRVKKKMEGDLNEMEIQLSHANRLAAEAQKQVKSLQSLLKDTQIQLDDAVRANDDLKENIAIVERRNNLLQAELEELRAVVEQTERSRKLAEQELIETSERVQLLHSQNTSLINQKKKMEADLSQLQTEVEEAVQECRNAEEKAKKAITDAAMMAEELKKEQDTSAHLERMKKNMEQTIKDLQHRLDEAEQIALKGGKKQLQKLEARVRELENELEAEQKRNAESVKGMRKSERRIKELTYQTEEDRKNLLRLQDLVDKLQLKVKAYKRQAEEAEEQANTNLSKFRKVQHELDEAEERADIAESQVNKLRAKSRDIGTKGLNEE
Sequence of bovine cardiac myofibrils (full-length cardiac myosin ATPase in the native sarcomere) (P85100 whole entry partner): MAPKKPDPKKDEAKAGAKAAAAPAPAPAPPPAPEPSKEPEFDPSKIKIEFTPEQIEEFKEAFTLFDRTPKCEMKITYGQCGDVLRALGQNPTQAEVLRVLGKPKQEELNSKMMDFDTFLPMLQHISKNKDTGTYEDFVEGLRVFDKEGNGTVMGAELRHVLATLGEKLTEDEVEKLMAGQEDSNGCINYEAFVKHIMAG
Sequence of bovine cardiac myofibrils (full-length cardiac myosin ATPase in the native sarcomere) (Q3SZE5 whole entry partner): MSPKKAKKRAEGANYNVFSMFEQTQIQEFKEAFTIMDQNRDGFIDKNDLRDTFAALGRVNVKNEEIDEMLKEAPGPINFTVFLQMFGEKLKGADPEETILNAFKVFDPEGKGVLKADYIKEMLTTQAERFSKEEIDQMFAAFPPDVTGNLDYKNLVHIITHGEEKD

For `Cc1cc(C(=O)N[C@@H]2CCc3cc(-c4noc(C)n4)ccc32)ccn1` [Compound 31, (R)-2-methyl-N-(5-(5-methyl-1,2,4-oxadiazol-3-yl)-2,3-dihydro-1H-inden-1-yl)isonicotinamide], in assay [1], the “CDMF75 IC15” value came to 1000 nM and the concentration for half-maximal inhibition (IC50) came out at 3600 nM. Further, in assay [2], the inhibition at 10 µM stood at 23.3 ± 18.9%.

In the case of `Cc1cc(C(=O)NC2CCc3cc(-c4noc(C(F)F)n4)ccc32)ccn1` (stereo not drawn) [Compound 5, N-(5-(5-(difluoromethyl)-1,2,4-oxadiazol-3-yl)-2,3-dihydro-1H-inden-1-yl)-2-methylisonicotinamide], in assay [1], the “CDMF75 IC15” value worked out at 1140 nM and the IC50 came out at 5100 nM. For the same compound, in assay [2], the inhibition at 10 µM worked out at 73.2 ± 7.1%.

On to `CCc1nc(-c2ccc3c(c2)CC[C@H]3NC(=O)c2cnn(C)c2)no1` [Compound 184, (R)—N-(5-(5-ethyl-1,2,4-oxadiazol-3-yl)-2,3-dihydro-1H-inden-1-yl)-1-methyl-1H-pyrazole-4-carboxamide], for which the inhibition at 5 µM in assay [2] turned out to be 67.4%. For the same compound, the concentration for half-maximal inhibition (IC50) in assay [3] is 7200 ± 200 nM; in assay [4], 7900 nM. For the same compound, the inhibition in vivo at 2 mg/kg turned out to be 43 ± 9% in assay [4] (setting [5]) and 31 ± 9% in assay [4] (setting [6]). Besides, in assay [4], the IC10 was 800 nM.

Take `Cc1cnoc1C(=O)N[C@@H]1CCc2cc(-c3noc(C(C)C)n3)ccc21` [Compound 116, (R)-N-(5-(5-isopropyl-1,2,4-oxadiazol-3-yl)-2,3-dihydro-1H-inden-1-yl)-4-methylisoxazole-5-carboxamide]: in assay [1], the “CDMF75 IC15” value was 300 nM and the half-inhibitory concentration (IC50) turned out to be 1500 nM. The inhibition at 10 µM in assay [2] stood at 72.5%.

Turning to `Cn1nnc(C(=O)N[C@@H]2CCc3cc(-c4noc(C(F)F)n4)ccc32)n1` [Compound 82, (R)-N-(5-(5-(difluoromethyl)-1,2,4-oxadiazol-3-yl)-2,3-dihydro-1H-inden-1-yl)-2-methyl-2H-tetrazole-5-carboxamide], in assay [1], the “CDMF75 IC15” value came to 500 nM. For the same compound, the IC50 is 2000 nM in assay [1] and 4900 nM in assay [4]. Also, the inhibition at 10 µM in assay [2] was determined as 89.6%. Moreover, the inhibition in vivo at 10 mg/kg in assay [4] (setting [5]) is 65 ± 6%; in assay [4] (setting [6]) it was 55 ± 8%. For the same compound, in assay [4], the IC10 is 1500 nM.

On to `CCc1nc(-c2ccc3c(c2)CC[C@H]3NC(=O)c2cnn(CCO)c2)no1` [Compound 474, (R)—N-(5-(5-ethyl-1,2,4-oxadiazol-3-yl)-2,3-dihydro-1H-inden-1-yl)-1-(2-hydroxyethyl)-1H-pyrazole-4-carboxamide], for which, in assay [1], the “CDMF75 IC15” value amounted to 600 nM and the IC50 was 2200 nM. Besides, the inhibition at 10 µM in assay [2] was determined as 75.2%. Also, in assay [4] (setting [5]), the inhibition in vivo at 6 mg/kg stood at 64 ± 8%. Further, in assay [4], the IC50 was 1400 nM and the concentration for an effect of 10% (IC10) is 200 nM. In assay [4] (setting [6]), the inhibition in vivo at 6 mg/kg was 27 ± 6%.

Take `Cn1nccc1C(=O)N[C@@H]1COc2cc(-c3noc(C(F)F)n3)ccc21` [Compound 124, (S)—N-(6-(5-(difluoromethyl)-1,2,4-oxadiazol-3-yl)-2,3-dihydrobenzofuran-3-yl)-1-methyl-1H-pyrazole-5-carboxamide]: in assay [1], the “CDMF75 IC15” value is 300 nM and the IC50 was found to be 900 nM. Also, in assay [2], the inhibition at 10 µM was 84.6%. In assay [3], the 50% inhibitory concentration (IC50) was 700 ± 20 nM.

Take `CCc1nc(-c2ccc3c(c2)CC[C@H]3NC(=O)c2cnn(C[C@@H](C)O)c2)no1` [Compound 542, N-[(1R)-5-(5-ethyl-1,2,4-oxadiazol-3-yl)-2,3-dihydro-1H-inden-1-yl]-1-[(2R)-2-hydroxypropyl]-1H-pyrazole-4-carboxamide]: in assay [1], the “CDMF75 IC15” value is 900 nM. For the same compound, the IC50 in assay [1] and in assay [4] was 3500 nM in each case. Further, the inhibition at 10 µM in assay [2] is 68.4%. For the same compound, the inhibition in vivo at 4.5 mg/kg came out at 71 ± 1% in assay [4] (setting [5]) and 54 ± 7% in assay [4] (setting [6]). Further, the 10% effect concentration (IC10) in assay [4] was 900 nM.

For the compound `Cc1ncc(C(=O)N[C@@H]2CCc3cc(-c4noc(C(F)F)n4)ccc32)o1` [Compound 100, (R)—N-(5-(5-(difluoromethyl)-1,2,4-oxadiazol-3-yl)-2,3-dihydro-1H-inden-1-yl)-2-methyloxazole-5-carboxamide], the “CDMF75 IC15” value in assay [1] came to 700 nM. Moreover, the half-inhibitory concentration (IC50) in assay [1] was 3000 nM; in assay [3], 8100 ± 260 nM; in assay [4] it was 9100 nM. Moreover, the inhibition at 5 µM in assay [2] amounted to 54.7%. The inhibition in vivo at 6 mg/kg in assay [4] (setting [5]) came to 60 ± 4%; in assay [4] (setting [6]), 40 ± 3%. Besides, the IC10 in assay [4] is 2300 nM.
